Where two headings read alike, the source gives them in different places.
Assays:
Type in all cases: cell-based
[1] = system: NCI-H524 human small cell lung cancer cells; assay: H524 assay: inhibition of cell proliferation (CellTiter Glo); conditions: 2 h treatment, washout, additional 70 h incubation
Summary of the method: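 Proliferation was measured by CellTiter Glo 70 h after a washout that followed a 2 h pulse of NDC. Doses were an 11-point, two-fold dilution series from 1 uM. IC50 was fitted with a four-parameter model to luminescence-based % inhibition relative to control cells.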

[2] = target: T1, human somatostatin receptor subtype 2 (Homo sapiens, UniProt P30874); assay: Functional assay for SSTR2 agonists (HTRF cAMP); conditions: CHO-K1 cells stably expressing human SST2, NKH477-stimulated cAMP, 20 min at 37 C
T1 construct: expressed in transfected cells
T1 sequence (P30874 whole entry): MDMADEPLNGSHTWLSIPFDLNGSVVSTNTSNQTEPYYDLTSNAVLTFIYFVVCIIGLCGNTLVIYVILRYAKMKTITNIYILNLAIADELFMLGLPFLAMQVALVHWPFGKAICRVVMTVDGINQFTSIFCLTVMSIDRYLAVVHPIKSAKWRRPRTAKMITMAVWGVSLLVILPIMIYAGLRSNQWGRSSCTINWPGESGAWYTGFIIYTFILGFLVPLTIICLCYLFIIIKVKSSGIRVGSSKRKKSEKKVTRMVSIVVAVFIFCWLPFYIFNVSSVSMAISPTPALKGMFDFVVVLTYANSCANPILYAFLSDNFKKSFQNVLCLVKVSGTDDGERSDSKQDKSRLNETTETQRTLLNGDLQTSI
Summary of the method: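 Agonist activity read as fall in intracellular cAMP: HTRF 665/620 nm ratio regressed to a cAMP standard curve, EC50 fitted. Stable human SSTR2 CHO-K1 cells exposed 20 min at 37 °C to compound, final concentrations typically 0-10,000 nM.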

[3] = target: T2, SST2 (Homo sapiens, UniProt P30874); assay: PathHunter CHO-K1 SST2 Internalization Assay; conditions: PathHunter CHO-K1 SST2 cells, 90 min at 37 C, luminescence
T2 construct: host or cells: PathHunter CHO-K1 SST2 cells
T2 sequence (P30874 whole entry): as above
Summary of the method: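 Four-parameter nonlinear fits of background-corrected luminescence (duplicate means) gave IC50s. NDCs were serially diluted 1:3 over 11 points from a 10 uM final top concentration and incubated 90 min at 37 C with human SST2 CHO-K1 cells plated 48 h earlier at 2500/well. Beta-Glo read-out developed 60 min at RT.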

| Compound | EC50 [1] [nM] | EC50 ([2]; hSST2 cAMP Avg EC50 (nM)) [nM] | EC50 ([3]; Internalization EC50 (nM)) [nM] | EC50 ([2]; read-out: hSST2 cAMP Avg EC50) [nM] | EC50 ([3]; read-out: Internalization EC50) [nM] |
| --- | --- | --- | --- | --- | --- |
| CC[C@@H](C)[C@H]([C@H](CC(=O)N1CCC[C@@H]1[C@@H](OC)[C@H](C)C(=O)N[C@@H](C)[C@H](O)c1ccccc1)OC)N(C)C(=O)[C@H](NC(=O)[C@@H](C(C)C)N(C)C(=O)OCc1ccc(NC(=O)[C@@H](CCCNC(N)=O)NC(=O)[C@H](NC(=O)[C@@H](CCC(=O)O)NC(=O)CCOCCOCCNC(=O)CCc2cn(CCCC[C@H](NC(=O)CCOCCC(=O)NCCNc3ncc(-c4cc(C)cc(F)c4)c(N4CCC(N)CC4)c3-c3nc4ccc(Cl)cc4[nH]3)C(=O)NCCOCCOCCC(=O)N[C@@H](CCC(=O)O)C(=O)N[C@H](C(=O)N[C@@H](CCCNC(N)=O)C(=O)Nc3ccc(COC(=O)N(C)[C@H](C(=O)N[C@H](C(=O)N(C)[C@@H]([C@@H](C)CC)[C@@H](CC(=O)N4CCC[C@H]4[C@H](OC)[C@@H](C)C(=O)N[C@H](C)[C@@H](O)c4ccccc4)OC)C(C)C)C(C)C)cc3)C(C)C)nn2)C(C)C)cc1)C(C)C [Compound 245] | 140 | 11 | 440 |  |  |
| CC[C@H](C)[C@@H]([C@@H](CC(=O)N1CCC[C@H]1[C@H](OC)[C@@H](C)C(=O)N[C@H](C)[C@@H](O)c1ccccc1)OC)N(C)C(=O)[C@@H](NC(=O)[C@H](C(C)C)N(C)C(=O)OCc1ccc(NC(=O)[C@H](CCCNC(N)=O)NC(=O)[C@@H](NC(=O)CCOCCC(=O)NCCNc2ncc(-c3cc(C)cc(F)c3)c(N3CCC(N)CC3)c2-c2nc3ccc(Cl)cc3[nH]2)C(C)C)cc1C(=O)N[C@@H](CCCCNC(=O)CCCCc1ccc(I)cc1)C(=O)O)C(C)C [Compound 246] | 74 |  |  | 0.1 | 1.5 |
| CC[C@H](C)[C@@H]([C@@H](CC(=O)N1CCC[C@H]1[C@H](OC)[C@@H](C)C(=O)N[C@H](C)[C@@H](O)c1ccccc1)OC)N(C)C(=O)[C@@H](NC(=O)[C@H](C(C)C)N(C)C(=O)OCc1ccc(NC(=O)[C@H](CCCNC(N)=O)NC(=O)[C@@H](NC(=O)CCOCCC(=O)NCCNc2ncc(-c3cc(C)cc(F)c3)c(N3CCC(N)CC3)c2-c2nc3ccc(Cl)cc3[nH]2)C(C)C)cc1C(=O)N[C@@H](CCCNC(=O)CCCCc1ccc(I)cc1)C(=O)O)C(C)C [Compound 247] | 18 |  |  | 0.19 | 1.4 |
| CC[C@H](C)[C@@H]([C@@H](CC(=O)N1CCCC1[C@H](OC)[C@@H](C)C(=O)N[C@H](C)[C@@H](O)c1ccccc1)OC)N(C)C(=O)[C@@H](NC(=O)[C@H](C(C)C)N(C)C(=O)OCc1ccc(O[C@@H]2O[C@H](C(=O)O)[C@@H](O)[C@H](O)[C@H]2O)c(NC(=O)[C@H](C)NC(=O)[C@@H](NC(=O)CCOCCC(=O)NCCNc2ncc(-c3cc(C)cc(F)c3)c(N3CCC(N)CC3)c2-c2nc3ccc(Cl)cc3[nH]2)C(C)C)c1)C(C)C (stereo partly drawn) [Compound 249] | 9.8 |  |  | 0.086 | 4.5 |
